In this assay the target is T1, human GPR119 (Homo sapiens, UniProt Q8TDV5).
T1 construct: expressed in transfected cells; host or cells: HEK-293 cell line stably expressing recombinant GPR119
T1 sequence (Q8TDV5 1-335): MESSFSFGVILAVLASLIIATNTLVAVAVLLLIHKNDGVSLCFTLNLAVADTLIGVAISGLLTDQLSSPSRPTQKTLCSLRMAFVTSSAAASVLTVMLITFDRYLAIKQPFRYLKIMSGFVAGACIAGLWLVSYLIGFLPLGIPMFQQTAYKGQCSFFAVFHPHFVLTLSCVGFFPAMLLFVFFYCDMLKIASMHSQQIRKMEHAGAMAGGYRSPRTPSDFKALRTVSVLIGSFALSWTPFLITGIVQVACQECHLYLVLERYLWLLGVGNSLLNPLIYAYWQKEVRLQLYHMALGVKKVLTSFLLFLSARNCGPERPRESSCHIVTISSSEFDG
Briefly: Functional cellular assay measuring GPR119-mediated cAMP release (HTRF), HEK-293 cells stably expressing recombinant GPR119. The class given is cell-based. Conditions: cell line expressing human GPR119; cAMP response, 30 minutes at room temperature. As for the experimental part: Functional Cellular Assays Measuring GPR119-Mediated cAMP Release.
Compounds of the invention, which are agonists of GPR119, were characterized by functional assays measuring the cAMP response of HEK-293 cell lines stably expressing recombinant GPR119 from man, mouse or rat, or by using a hamster cell line HIT-T15 expressing GPR119 endogenously. The cAMP content was determined using a kit based on homogenous time-resolved fluorescence (HTRF) from Cisbio Corp. (cat. no. 62AM4PEC). For preparation, cells were split into T175 culture flasks and grown to near confluency in medium (DMEM/10% FCS for HEK-293 cells, and F-12K medium/10% horse serum/2.5% FCS for HIT-T15 cells, respectively). Medium was then removed and cells washed with PBS lacking calcium and magnesium ions, followed by proteinase treatment with accutase (Sigma-Aldrich, cat. no. A6964). Detached cells were washed and resuspended in assay buffer (1×HBSS; 20 mM HEPES, 0.1% BSA, 2 mM IBMX) and cellular density determined. They were then diluted to 400000 cells/mL and 25 μL-aliquots dispensed to the wells of 96-well plates. For measurement, 25 μL of test compound in assay buffer was added and incubated for 30 minutes at room temperature. After addition of HTRF reagents diluted in lysis buffer, the plates were incubated for 1 hour, followed by measuring the fluorescence ratio at 665 vs. 620 nm. Potency of the agonists was quantified by determining the concentrations that caused 50% of the maximal response/activation (EC50). See Table 10 for exemplary data obtained using the cell line expressing human GPR119.
(In general: TR-FRET usually uses a lanthanide donor and a delayed reading to cut background.)
What is called EC50 is the concentration giving half of the maximal effect. In the case of `CC(C)CCCc1ccc(O[C@@H]2CCN(c3cc(F)c4c(c3)C(=O)CC4)C2=O)cn1` [Example 3-14], the concentration for a half-maximal effect (EC50) was determined as 81 nM.

In the case of `CC(=O)c1ccc(O[C@@H]2CCN(c3cc(F)c4c(c3)C(=O)CC4)C2=O)cn1` [Example 3-15], the EC50 is 29000 nM. As for `O=C1CCc2c(F)cc(N3CC[C@@H](Oc4ccc(SC5CC5)nc4)C3=O)cc21` [Example 3-16], the EC50 came out at 19 nM. The result for `O=C1CCc2c(F)cc(N3CC[C@@H](Oc4ccc(SCC5CC5)nc4)C3=O)cc21` [Example 3-17] reads 11 nM; that for `CCOc1ncc(O[C@@H]2CCN(c3cc(F)c4c(c3)C(=O)CC4)C2=O)cc1F` [Example 3-18], 45 nM; that for `O=C1CCc2c(F)cc(N3CC[C@@H](Oc4cnc(OCC5CC5)c(Br)c4)C3=O)cc21` [Example 3-19], 12 nM. The result for `CC(C)Oc1ccc(O[C@H]2CCN(c3cc(F)c4c(c3)C(=O)CC4)C2=O)cn1` [Example 3-20] reads 1050 nM.

Regarding `CCOc1ccc(O[C@H]2CCN(c3cc(F)c4c(c3)C(=O)CC4)C2=O)cn1` [Example 3-21], the EC50 was 1980 nM. `O=C1CCc2c(Cl)cc(N3CC[C@@H](Oc4ccc(OCC5CC5)nc4)C3=O)cc21` [Example 4-01]: the 50% effective concentration (EC50) amounted to 64 nM.

`Cc1cc(N2CC[C@@H](Oc3ccc(OCC4CC4)nc3)C2=O)cc2c1CCC2=O` [Example 4-02]: the EC50 is 283 nM. With `N#Cc1cc(N2CC[C@@H](Oc3ccc(OCC4CC4)nc3)C2=O)cc2c1CCC2=O` [Example 4-03] the figure was 97 nM. The result for `O=C1CCc2c(F)cc(N3CC[C@@H](Oc4ccnc(OCCC5CC5)c4)C3=O)cc21` [Example 5-01] reads 22 nM. With `CCCCOc1cc(O[C@@H]2CCN(c3cc(F)c4c(c3)C(=O)CC4)C2=O)ccn1` [Example 5-02] the figure was 190 nM. With `O=C1CCc2c(F)cc(N3CC[C@@H](Oc4ccnc(OCC5CC5)c4)C3=O)cc21` [Example 5-03], the EC50 is 40 nM. With `CCOc1cc(O[C@@H]2CCN(c3cc(F)c4c(c3)C(=O)CC4)C2=O)ccn1` [Example 5-04] the figure was 169 nM; with `CCCOc1cc(O[C@@H]2CCN(c3cc(F)c4c(c3)C(=O)CC4)C2=O)ccn1` [Example 5-05], 65 nM. Consider `CCCCCOc1cc(O[C@@H]2CCN(c3cc(F)c4c(c3)C(=O)CC4)C2=O)ccn1` [Example 5-06], for which the EC50 stood at 32 nM. As for `O=C1CCc2c(F)cc(N3CC[C@@H](Oc4ccnc(OCC(F)(F)F)c4)C3=O)cc21` [Example 5-07], the EC50 was found to be 30 nM. The result for `CC(C)Oc1cc(O[C@@H]2CCN(c3cc(F)c4c(c3)C(=O)CC4)C2=O)ccn1` [Example 5-08] reads 72 nM; that for `COCCCOc1cc(O[C@@H]2CCN(c3cc(F)c4c(c3)C(=O)CC4)C2=O)ccn1` [Example 5-09], 126 nM. With `O=C1CCc2c(F)cc(N3CC[C@@H](Oc4ccnc(OC5CCC5)c4)C3=O)cc21` [Example 5-10] the figure was 28 nM. With `O=C1CCc2c(F)cc(N3CC[C@@H](Oc4ccc(Oc5ccc(F)cn5)nc4)C3=O)cc21` [Example 6-01], the EC50 was 216 nM.

`O=C1CCc2c(F)cc(N3CC[C@@H](Oc4ccc(OCC5CC5)[n+]([O-])c4)C3=O)cc21` [Example 7-01]: the EC50 was found to be 5590 nM.

With `COC(=O)c1cc(O[C@@H]2CCN(c3cc(F)c4c(c3)C(=O)CC4)C2=O)cnc1OCC1CC1` [Example 8-01], the EC50 worked out at 64 nM. The result for `O=C(O)c1cc(O[C@@H]2CCN(c3cc(F)c4c(c3)C(=O)CC4)C2=O)cnc1OCC1CC1` [Example 8-02] reads 2690 nM; that for `CN(C)C(=O)c1cc(O[C@@H]2CCN(c3cc(F)c4c(c3)C(=O)CC4)C2=O)cnc1OCC1CC1` [Example 8-03], more than 100000 nM. Turning to `CCCc1cc(O[C@@H]2CCN(c3cc(F)c4c(c3)C(=O)CC4)C2=O)cnc1OCC1CC1` [Example 8-04], the EC50 amounted to 109 nM. Turning to `N#Cc1cc(O[C@@H]2CCN(c3cc(F)c4c(c3)C(=O)CC4)C2=O)cnc1OCC1CC1` [Example 8-05], the EC50 is 242 nM. For `O=C1CCc2c(F)cc(N3CC[C@@H](Oc4ccc(OCC5CC5)nc4)C3=O)c(F)c21` [Example 9-01], the half-maximal effective concentration (EC50) turned out to be 19 nM.

On to `O=C1CCc2c(F)cc(N3CC[C@@H](Oc4ccc(OC5CC5)nc4)C3=O)c(F)c21` [Example 9-02], for which the EC50 was 69 nM. For the compound `O=C1CCc2ccc(N3CC[C@@H](Oc4ccc(OCC5CC5)nc4)C3=O)c(F)c21` [Example 9-03], the concentration for a half-maximal effect (EC50) was 46 nM.

For the origin of these results see patent US8853412B2, “Pyrrolidinone derivatives as GPR119 modulators for the treatment of diabetes, obesity, dyslipidemia and related disorders” (Sanofi, priority 2012, dated 2014).
